This note sets out measurements from article PMC8286840, “Identifying SARS-CoV-2 antiviral compounds by screening for small molecule inhibitors of Nsp3 papain-like protease” (Biochemical Journal, 2021).

SMILES strings stand for the structures. Counter-ions that a name gives are not always drawn. Like-named read-outs stand apart in the source and are kept apart here.

Assay [1] has as its target T1, SARS-CoV-2 PLpro (nsp3 1564–1878) (Severe acute respiratory syndrome coronavirus 2, UniProt P0DTD1). The assay is described as follows: biochemical. The arrangement: FRET-quenched peptide (Pro3) cleavage by PLpro, 10 min pre-incubation, slope over 20 min, normalised to no-compound control. As to conditions: low concentration screen, read-out: % of control remaining.
The target of assay [2] is T1, SARS-CoV-2 PLpro (nsp3 1564–1878). Nature of the assay: biochemical. Set-up: FRET-quenched peptide (Pro3) cleavage by PLpro, 10 min pre-incubation, slope over 20 min, normalised to no-compound control. As to conditions: high concentration screen, read-out: % of control remaining.

As to `CNc1ccc2oc(C[C@H]3O[C@@]4(CC[C@H]3C)O[C@H]([C@H](C)C(=O)c3ccc[nH]3)[C@H](C)C[C@H]4C)nc2c1C(=O)O` [Calcimycin], the remaining activity at 1.25 µM in assay [1] (Well no.=376) amounted to 98.7%. The remaining activity at 3.75 µM in assay [2] (Well no.=376) was 96.8%.
Turning to `CCc1cnn2c(NCc3ccc[n+]([O-])c3)cc(N3CCCC[C@H]3CCO)nc12` [Dinaciclib (SCH727965)], in assay [1] (Well no.=5081), the remaining activity at 1.25 µM was found to be 99.7%. Besides, in assay [2] (Well no.=5081), the remaining activity at 3.75 µM is 105%.
On to `O=C(CCc1ccc(O)cc1)c1c(O)cc(O)cc1O` [Phloretin], for which the results for the remaining activity at 1.25 µM in assay [1] (Well no.=1397) and in assay [1] (Well no.=3821) were 102% and 95.3%, respectively. Further, the remaining activity at 3.75 µM was 102% in assay [2] (Well no.=1397) and 94.8% in assay [2] (Well no.=3821).
Turning to `C[N+](C)(C)CCOC(N)=O` [Carbamylcholine], in assay [1] (Well no.=1734), the remaining activity at 1.25 µM is 99.8%. For the same molecule, the remaining activity at 3.75 µM in assay [2] (Well no.=1734) was determined as 102%.
`CCC(C)(C)c1ccc(CC(C)CN2C[C@@H](C)O[C@@H](C)C2)cc1` (some centres unmarked) [Amorolfine HCl]: in assay [1] (Well no.=5337), the remaining activity at 1.25 µM is 98.1%. In addition, the remaining activity at 3.75 µM in assay [2] (Well no.=5337) came out at 98.1%.
Consider `CCCCCCCCCCCCCCC(Br)C(=O)O` (centres unmarked) [2-bromohexadecanoic acid], for which, in assay [1] (Well no.=5893), the remaining activity at 1.25 µM stood at 106%. In addition, the remaining activity at 3.75 µM in assay [2] (Well no.=5893) stood at 106%.
With `COCCOc1ccc(N2CCN(CCn3ncc4c3nc(N)n3nc(-c5ccco5)nc43)CC2)cc1` [Preladenant], in assay [1] (Well no.=7141), the remaining activity at 1.25 µM was 102%. The remaining activity at 3.75 µM in assay [2] (Well no.=7141) turned out to be 102%.
For the molecule `CC(C)(C)c1cc(O)ccc1O` [tert-Butylhydroquinone], in assay [1] (Well no.=3861), the remaining activity at 1.25 µM was found to be 98%. Besides, the remaining activity at 3.75 µM in assay [2] (Well no.=3861) is 97.9%.
As to `C=CCN1C[C@H](C(=O)N(CCCN(C)C)C(=O)NCC)C[C@@H]2c3cccc4[nH]cc(c34)C[C@H]21` [Cabergoline], the values for the remaining activity at 1.25 µM in assay [1] (Well no.=1929) and in assay [1] (Well no.=7179) were 105% and 94.5%, respectively. Besides, the remaining activity at 3.75 µM in assay [2] (Well no.=1929) amounted to 105%; in assay [2] (Well no.=7179), 96.6%.
With `O=C1CCC(c2ccc(-n3ccnc3)cc2)=NN1` [Imazodan], the remaining activity at 1.25 µM in assay [1] (Well no.=764) worked out at 97.3%. In assay [2] (Well no.=764), the remaining activity at 3.75 µM turned out to be 97.7%.
For the molecule `CCCC[C@@H](NC(=O)[C@@H](Cc1cn(C(=O)OC)c2ccccc12)NC(=O)[C@H](CC(C)(C)C)NC(=O)N1[C@H](C)CCC[C@@H]1C)C(=O)O` [BQ-788 (sodium salt)], in assay [1] (Well no.=8560), the remaining activity at 1.25 µM came out at 108%. Also, the remaining activity at 3.75 µM in assay [2] (Well no.=8560) is 101%.
For the molecule `Nc1ccc(S(=O)(=O)Nc2ccnn2-c2ccccc2)cc1` [Sulfaphenazole], the figures for the remaining activity at 1.25 µM in assay [1] (Well no.=1404) and in assay [1] (Well no.=8418) were 104% and 85.5%, respectively. Moreover, the remaining activity at 3.75 µM in assay [2] (Well no.=1404) turned out to be 99.3%; in assay [2] (Well no.=8418), 85.2%.
As to `COc1ccccc1N1CCN(CC(O)COc2cccc3ccccc23)CC1` (centres unmarked) [Naftopidil dihydrochloride], the remaining activity at 1.25 µM in assay [1] (Well no.=1084) turned out to be 96.1%. The remaining activity at 3.75 µM in assay [2] (Well no.=1084) amounted to 95.6%.
Turning to `CN1CCC(=C2c3ccccc3C=Cc3ccccc32)CC1` [Cyproheptadine (hydrochloride sesquihydrate)], the remaining activity at 1.25 µM in assay [1] (Well no.=6185) amounted to 97.8%. Moreover, the remaining activity at 3.75 µM in assay [2] (Well no.=6185) came to 95.9%.
`OC[C@H]1O[C@@H](n2cnc3c(NC4CCCCC4)ncnc32)[C@H](O)[C@@H]1O` [N6-Cyclohexyladenosine]: the remaining activity at 1.25 µM was 98.1% in assay [1] (Well no.=435), 96.4% in assay [1] (Well no.=7053), 92% in assay [1] (Well no.=7952) and 106% in assay [1] (Well no.=8083). Besides, the remaining activity at 3.75 µM in assay [2] (Well no.=435) was determined as 100%; in assay [2] (Well no.=7053) it was 95.5%; in assay [2] (Well no.=7952) it was 92.4%; in assay [2] (Well no.=8083), 105%.
`Nc1nc(N)c2nc(CNc3ccc(C(=O)N[C@@H](CCC(=O)O)C(=O)O)cc3)cnc2n1` [Aminopterin]: the remaining activity at 1.25 µM in assay [1] (Well no.=153) stood at 101%. Also, the remaining activity at 3.75 µM in assay [2] (Well no.=153) stood at 104%.
As for `CC(C)C[C@H](NC(=O)[C@@H](COC(C)(C)C)NC(=O)[C@H](Cc1ccc(O)cc1)NC(=O)[C@H](CO)NC(=O)[C@H](Cc1c[nH]c2ccccc12)NC(=O)[C@H](Cc1cnc[nH]1)NC(=O)[C@@H]1CCC(=O)N1)C(=O)N[C@@H](CCCNC(=N)N)C(=O)N1CCC[C@H]1C(=O)NNC(N)=O` [Goserelin], the remaining activity at 1.25 µM in assay [1] (Well no.=1624) was determined as 98.9%. In addition, in assay [2] (Well no.=1624), the remaining activity at 3.75 µM worked out at 101%.
For the molecule `C[C@@H]1C[C@@H]([C@H](O)CC2CC(=O)NC(=O)C2)C(=O)[C@@H](C)C1` [Cycloheximide], the remaining activity at 1.25 µM in assay [1] (Well no.=3179) was 98.2%. In assay [2] (Well no.=3179), the remaining activity at 3.75 µM came out at 98.5%.
With `CC(=O)[C@H]1CC[C@H]2[C@@H]3CC=C4C[C@@H](OS(=O)(=O)O)CC[C@]4(C)[C@H]3CC[C@]12C` [Pregnenolone sulfate sodium], the remaining activity at 1.25 µM in assay [1] (Well no.=1169) came to 101%. For the same molecule, in assay [2] (Well no.=1169), the remaining activity at 3.75 µM turned out to be 102%.
With `CC(C)C(O)C(=O)O` (centres unmarked) [2-Hydroxy-3-methylbutanoic acid], in assay [1] (Well no.=7503), the remaining activity at 1.25 µM was 101%. Besides, the remaining activity at 3.75 µM in assay [2] (Well no.=7503) stood at 98.9%.
Turning to `COc1cc(NC(=O)c2ccccn2)ccc1Cl` [VU0361737], the remaining activity at 1.25 µM in assay [1] (Well no.=7189) stood at 99.9%. Besides, the remaining activity at 3.75 µM in assay [2] (Well no.=7189) is 97.6%.
Regarding `N#Cc1cc(NC(=O)C(=O)O)c(Cl)c(NC(=O)C(=O)O)c1` [Lodoxamide], the remaining activity at 1.25 µM in assay [1] (Well no.=8241) came out at 107%. In addition, the remaining activity at 3.75 µM in assay [2] (Well no.=8241) was found to be 105%.
On to `OC[C@H]1O[C@@H](n2cnc3c(NCCc4ccccc4)ncnc32)[C@H](O)[C@@H]1O` [N6-2-Phenylethyladenosine], for which, in assay [1] (Well no.=1453), the remaining activity at 1.25 µM was determined as 98.5%. Further, the remaining activity at 3.75 µM in assay [2] (Well no.=1453) was 98.6%.
In the case of `C[C@@H]1O[C@@H](Oc2c(-c3cc(O)c(O)c(O)c3)oc3cc(O)cc(O)c3c2=O)[C@H](O)[C@H](O)[C@H]1O` [Myricitrin], in assay [1] (Well no.=3343), the remaining activity at 1.25 µM is 95.5%. Also, in assay [2] (Well no.=3343), the remaining activity at 3.75 µM amounted to 97.9%.
For the molecule `O=C(O)/C=C/c1ccccc1` [Cinnamic acid], in assay [1] (Well no.=7011), the remaining activity at 1.25 µM turned out to be 104%. In addition, the remaining activity at 3.75 µM in assay [2] (Well no.=7011) is 105%.
Take `NCC(=O)O` [Glycine]: the remaining activity at 1.25 µM in assay [1] (Well no.=7699) came to 106%. In assay [2] (Well no.=7699), the remaining activity at 3.75 µM was determined as 108%.
`COc1cccc(-c2cn(-c3ccc(CCN4CCC(O)CC4)cc3)c3ncnc(N)c23)c1` [CGP77675]: the remaining activity at 1.25 µM in assay [1] (Well no.=5466) worked out at 93.4%. Moreover, the remaining activity at 3.75 µM in assay [2] (Well no.=5466) stood at 99.9%.
For `CC1(C)CCC(C)(C)c2cc(NC(=O)c3ccc(C(=O)O)cc3)ccc21` [Tamibarotene], the remaining activity at 1.25 µM in assay [1] (Well no.=8108) is 97.6%. For the same molecule, the remaining activity at 3.75 µM in assay [2] (Well no.=8108) stood at 101%.
